Results: ChEMBL document CHEMBL4706632, “Development of Potential Antitumor Agents from the Scaffolds of Plant-Derived Terpenoid Lactones” (J Med Chem, 2020)
Blank lines part the entries; values can stand above or below the molecule they belong to.

Experiments:
Format in all cases: functional, cell-based
MDA-MB-231 [1] = assay: Cytotoxicity against human MDA-MB-231 cells incubated for 48 hrs by MTT assay; details: MDA-MB-231, 48 h
LNCaP C4-2B = assay: Cytotoxicity against human LNCaP C4-2B cells incubated for 48 hrs by MTT assay
HCT-15 [2] = assay: Cytotoxicity against human HCT-15 cells incubated for 48 hrs by MTT assay; details: HCT-15, 48 h
PANC-1 [3] = assay: Cytotoxicity against human Panc-1 cells incubated for 72 hrs by sulphorhodamine B assay; details: PANC-1, 72 h
SW1990 = assay: Antiproliferative activity against human SW1990 incubated for 72 hrs by sulphorhodamine B assay; details: SW1990, 72 h
MCF7 [4] = assay: Cytotoxicity against human MCF-7 cells incubated for 72 hrs by MTT assay; details: MCF7, 72 h
MDA-MB-231 [5] = assay: Cytotoxicity against human MDA-MB-231 cells incubated for 72 hrs by MTT assay; details: MDA-MB-231, 72 h
LNCaP = assay: Cytotoxicity against human LNCAP cells incubated for 48 hrs clonogenic survival assay; details: 48 h
BGC-823 = assay: Cytotoxicity against human BGC-823 cells by MTT assay
HCT-116 [6] = assay: Cytotoxicity against human HCT-116 cells by MTT assay
HepG2 [7] = assay: Cytotoxicity against human HepG2 cells by MTT assay
P388 = assay: Cytotoxicity against mouse P388 cells incubated for 48 hrs by MTT assay; details: P388, 48 h
HepG2 [8] = assay: Cytotoxicity against human HepG2 cells incubated for 48 hrs by alamarblue reagent based assay; details: HepG2, 48 h
MCF7 [9] = assay: Cytotoxicity against human MCF7 cells incubated for 48 hrs by alamarblue reagent based assay; details: MCF7, 48 h
HCT-116 [10] = assay: Antiproliferative activity against human HCT-116 cells incubated for 72 hrs by WST-1 assay; details: HCT-116, 72 h
A549 [11] = assay: Antiproliferative activity against human A549 cells incubated for 72 hrs by Sulforhodamine B assay; details: A549, 72 h
A-431 = assay: Antiproliferative activity against human A-431 cells incubated for 72 hrs by Sulforhodamine B assay; details: A-431, 72 h
[12] = Antiproliferative activity against human U87-MG cells incubated for 72 hrs by Sulforhodamine B assay; details: U-87 MG
L1210 = assay: Cytotoxicity against mouse L1210 cells
A549 [13] = assay: Cytotoxicity against human A549 cells by SRB staining assay
HCT-15 [14] = assay: Cytotoxicity against human HCT-15 cells by SRB staining assay
SK-MEL-2 = assay: Cytotoxicity against human SK-MEL-2 cells by SRB staining assay
SK-OV-3 = assay: Cytotoxicity against human SK-OV-3 cells by SRB staining assay
XF498 = assay: Cytotoxicity against human XF498 cells by SRB staining assay
AGS = assay: Cytotoxicity against human AGS cells incubated for 48 hrs by MTT assay
HeLa = assay: Cytotoxicity against human HeLa cells incubated for 48 hrs by MTT assay
HepG2 [15] = assay: Cytotoxicity against human HepG2 cells incubated for 48 hrs by MTT assay; details: HepG2, 48 h
PANC-1 [16] = assay: Cytotoxicity against human Panc-1 cells incubated for 48 hrs by MTT assay; details: PANC-1, 48 h

Structure (SMILES): CC1=C2C(=C[C@H]3[C@]4(C)CCCC(C)(C)[C@H]4CC[C@]34O[C@H]24)OC1=O
IC50 (MDA-MB-231 [1]): > 50 µM
IC50 (LNCaP C4-2B): 10 µM
IC50 (HCT-15 [2]): > 50 µM

Structure (SMILES): CC1(C)CCC[C@]2(C)[C@@H]1CC[C@@]13O[C@@H]1C1=C(CO)C(=O)OC1=C[C@@H]23
IC50 (MDA-MB-231 [1]): 8.8 µM
IC50 (LNCaP C4-2B): 2.2 µM
IC50 (HCT-15 [2]): 13 µM

Structure (SMILES): CC1(C)CCC[C@]2(C)[C@@H]1CC[C@@]13O[C@@H]1C1=C(CO)C(=O)O[C@]14O[C@@H]4[C@@H]23
IC50 (MDA-MB-231 [1]): > 50 µM
IC50 (LNCaP C4-2B): 12 µM
IC50 (HCT-15 [2]): > 50 µM

IC50 (SW1990): > 10 µM
Structure (SMILES): COC(=O)[C@@]12OC[C@]34[C@H]([C@@H](O)[C@@H]1O)[C@@]1(C)C=C(O[C@@H]5O[C@H](CO)[C@@H](O)[C@H](O)[C@H]5O)C(=O)[C@@H](C)[C@@H]1C[C@H]3OC(=O)[C@H](OC(=O)/C=C(\C)C(C)C)[C@@H]24
IC50 (PANC-1 [3]): > 10 µM

IC50 (SW1990): > 100 µM
Structure (SMILES): COC(=O)[C@@]12OC[C@]34[C@H]([C@@H](O)[C@@H]1O)[C@@]1(C)C=C(O[C@@H]5O[C@H](CO)[C@@H](O)[C@H](O)[C@H]5O)C(=O)[C@@H](C)[C@@H]1C[C@H]3OC(=O)[C@H](OC(=O)CC(C)C)[C@@H]24
IC50 (PANC-1 [3]): > 100 µM
IC50 (MCF7 [4]): > 50 µM
IC50 (MDA-MB-231 [5]): > 50 µM

Structure (SMILES): C/C=C(/C)C(=O)O[C@H]1C(C)=C2[C@H]([C@@H]1OC(=O)CCCCCCC)[C@@](C)(OC(C)=O)C[C@H](OC(=O)CCCCCCCCCCCNC(=O)[C@@H](N)CC(C)C)[C@@]1(O)[C@H]2OC(=O)[C@@]1(C)O
IC50 (LNCaP): 0.014 µM

Structure (SMILES): CC(C)[C@]1(O)[C@H](O)[C@@H]2O[C@]23[C@]2(O[C@H]2C[C@H]2C4=C(CC[C@@]23C)C(=O)OC4)[C@@H]1O
IC50 (BGC-823): > 10 µM
IC50 (HCT-116 [6]): > 10 µM
IC50 (HepG2 [7]): > 10 µM

Structure (SMILES): CC(C)[C@H]1OC(=O)C=C2[C@@]13O[C@@H]3[C@H]1OC(=O)[C@@]3(C)CCC[C@@]2(C)[C@@H]13
IC50 (P388): 0.24 µM

Structure (SMILES): C=C1C(=O)O[C@@H]2C3O[C@]3(C)CC/C=C(\C)CC[C@@H]12 (some centres undefined)
IC50 (HepG2 [8]): 17 µM
IC50 (MCF7 [9]): 11 µM

IC50 (HCT-116 [10]): 0.067 µM
IC50 (SW1990): 0.1 µM
Structure (SMILES): COC(=O)[C@@]12OC[C@]34[C@H]([C@@H](O)[C@@H]1O)[C@@]1(C)CC(=O)C(O)=C(C)[C@@H]1C[C@H]3OC(=O)[C@H](OC(=O)C=C(C)C)[C@@H]24
IC50 (PANC-1 [3]): 0.36 µM
IC50 (MCF7 [4]): 0.083 µM
IC50 (MDA-MB-231 [5]): 0.081 µM

IC50 (A549 [11]): > 50 µM
IC50 (A-431): > 50 µM
Structure (SMILES): C[C@H](CO[C@@H]1O[C@H](CO)[C@@H](O)[C@H](O)[C@H]1O)[C@H]1OC(=O)C=C2[C@@]13O[C@@H]3[C@H]1OC(=O)[C@@]3(C)[C@@H](O)CC[C@@]2(C)[C@@H]13
IC50 [12]: > 50 µM

Structure (SMILES): C=C1[C@@H](O)[C@@]2(O)OC[C@@]34[C@H]1[C@@H](OC(=O)/C=C(\C)CCCCC)C(=O)O[C@@H]3C[C@H]1C(C)=CC(=O)[C@@H](O)[C@]1(C)[C@@H]24
IC50 (L1210): 0.09 µM

IC50 (A549 [11]): 1.1 µM
IC50 (A-431): 4.6 µM
Structure (SMILES): C[C@H](CO)[C@H]1OC(=O)C=C2[C@@]13O[C@@H]3[C@H]1OC(=O)[C@@]3(C)[C@@H](O)CC[C@@]2(C)[C@@H]13
IC50 [12]: 4 µM

Structure (SMILES): CC(=O)O[C@@H]1C[C@H](O)[C@@]23COC(O)[C@]1(C)[C@@H]2C[C@@H](O)[C@@]1(C)[C@@H]2C(=O)C[C@@H](c4ccoc4)[C@]2(C)[C@@H](O)C(=O)[C@@H]13 (some centres undefined)
IC50 (A549 [13]): 1.7 µM
IC50 (HCT-15 [14]): 3 µM
IC50 (SK-MEL-2): 0.71 µM
IC50 (SK-OV-3): 26 µM
IC50 (XF498): 3.8 µM

Structure (SMILES): C/C1=C\CC[C@@]2(C)O[C@H]2[C@H]2OC(=O)C(CNc3ccn(C4OC(CO)[C@H](O)[C@@H]4O)c(=O)n3)[C@@H]2CC1 (some centres undefined)
IC50 (HepG2 [8]): 0.24 µM
IC50 (MCF7 [9]): 5.2 µM

IC50 (A549 [11]): 0.57 µM
IC50 (A-431): 0.21 µM
Structure (SMILES): CC(C)[C@H]1OC(=O)C=C2[C@@]13O[C@@H]3[C@H]1OC(=O)[C@@]3(C)C[C@@H](O)C[C@@]2(C)[C@@H]13
IC50 (MDA-MB-231 [1]): > 40 µM
IC50 (AGS): 1.4 µM
IC50 (HeLa): 0.6 µM
IC50 (HepG2 [15]): 3.1 µM
IC50 (PANC-1 [16]): > 40 µM
IC50 [12]: 0.43 µM
